Assay results reported in patent publication US10100011B2, “Pentadienoyl piperidine derivative and use thereof” (Industry-Academic Cooperation Foundation, Yonsei University, priority 2014, dated 2018).

Assays:
3T3L1 cells = assay: Adipocyte differentiation inhibition in preadipocytes (Oil-red O staining); type: cell-based, mouse; settings: Mus musculus, 3T3-L1, treated every two days during 14 days differentiation, Oil-red O O.D. 600 nm, read-out: adipocyte differentiation inhibition activity, EC50 value
Procedure: Preadipocytes, 3T3L1 cells, were aliquoted into a 12-well plate and cultured in a DMEM medium containing 1% penicillin-streptomycin, 1% nonessential amino acid, and 10% fetal bovine serum (FBS) in a 5% CO2 incubator at 37° C. until confluence. The 3T3L1 cells grown to confluence were cultured for two days in a medium containing 0.5 mM isobutyl-methylxanthine, 1 μM dexamethasone (MDI), and 1 μg/ml insulin, thereby being differentiated into adipocytes. Subsequently, the differentiated adipocytes were further cultured for two days in a DMEM medium including 1 μg/ml insulin, thereby being differentiated into mature adipocytes. Subsequently, the differentiated mature adipocytes were further cultured for 10 days while replacing a used DMEM medium with a new DMEM medium every two days. As a result, completely differentiated adipocytes were formed.
3T3-L1 cells were treated with each of a total of four novel compound types at different concentrations every two days from the first day of cell differentiation induction by addition of DMI. Each of the derivative compounds was dissolved in DMSO and then used. A negative control group including only DMSO was included in this experiment. Cell culture was carried out for 14 days. When differentiation was completed, a medium was removed and lipid droplets contained in differentiated adipocytes were stained. To stain the lipid droplets, cells were washed with phosphate buffered saline (PBS) twice and then fixed with 10% buffered neutral formalin for one hour, followed by washing with PBS once. Subsequently, 1 ml of Oil-red-O dye for staining lipid droplets red was fed into a 12-well plate and lipid droplets were stained for one hour, followed by washing with distilled water twice. To measure the concentration of neutral fat contained in the differentiated 3T3L1 cells, the stained lipid droplets were dissolved in 1 ml of isobutanol, followed by measuring an O.D value at 600 nm.

C57BL/6J mice = assay: Oral glucose tolerance test, fasting blood glucose and insulin in mice fed high-fat diet; type: in vivo, mouse
Procedure: An obesity induction diet used in this experiment was a high-fat diet (HFD: 40% fat calories, 17 g of lard+3% corn oil/100 g diet), and the compositions of diets including the LJ-2501, LJ-2488, LJ-2495, LJ-2496 compounds were identical to that of HFD, except that each of the compounds was included in an amount of about 0.05% (Table 2). As a control drug, an anti-obesity drug, sibutramine (Sibut), was added in an amount of about 0.01% to the high-fat diet and a normal diet group (Chow) was fed with commercial rodent chow.
5-week old 40 male C57BL/6J mice (Orient Bio., Korea) were fed with hard feed and accommodated in a laboratory environment for one week. Subsequently, in accordance with a randomized block method, the mice were randomly grouped into a normal diet group, a high-fat diet control group, two experimental substance groups, and […] and raised for a total of 10 weeks (n=8/group). Diets were supplied with water between 10 am and 11 am every day. An intake amount was measured every day and the body weights of the mice were measured every week. To prevent temporal weight change due to feed intake, feedboxes were removed and, after two hours, the body weights were measured. The experimental animals were fasted for 12 hours or more and then anesthetized with diethyl ether, followed by collecting blood, liver, and visceral adipose tissues (epididymal fat, perirenal fat, mesenteric fat, and retroperitoneal fat). The collected samples were washed with 0.1 M phosphate buffered saline (pH 7.4) and then weighed. Blood samples collected from abdominal aortas were centrifuged at 1000×g for 15 minutes, thereby separating plasma.
The experimental animals were fasted for 18 hours after being raised eight weeks for experiment and orally administered d-glucose in an amount of 2 g/kg body weight. At 15 minutes, 30 minutes, 60 minutes, 120 minutes after the d-glucose administration, blood was collected from the tail veins of the mice. A glucose concentration in the collected blood was measured by means of a strip-operated blood glucose sensor (ONETOUCH Ultra, Inverness Medical Ltd. Stockport, UK).
A glucose concentration in plasma during fasting was measured by means of an automatic biochemical analyzer (Express Plus, Chiron Diagnostics Co., USA) and a kit reagent for analysis was purchased from Bayer (Tarrytown, N.Y., USA). An insulin concentration in plasma was measured using the Rat Insulin RIA kit (LINCO Research, Inc, St. Charles, USA).

SMILES: CSc1ccc(/C=C/C=C/C(=O)N2CCCCC2)cc1 [LJ-2501, (2E,4E)-5-(4-(methylthio)phenyl)-1-(piperine-1-yl)penta-2,4-diene-1-one]
- EC50 (3T3L1 cells): 101 µM
- blood glucose concentrations after oral glucose compared to HFD (in words) (C57BL/6J mice; 2 g/kg glucose orally, 15, 30, 60 and 120 minutes): reduced in all time slots
- insulin resistance index (HOMA-IR), reduction compared to HFD (C57BL/6J mice; calculated from fasting glucose and insulin, 10 weeks): 61%
- blood glucose concentration during fasting, reduction compared to HFD (C57BL/6J mice; compound in high-fat diet for 10 weeks): 20%
- blood insulin concentration, reduction compared to HFD (C57BL/6J mice; compound in high-fat diet for 10 weeks, fasting): 59%
- area under the curve (AUC) of blood glucose concentration, reduction compared to HFD (C57BL/6J mice; oral glucose tolerance test, 2 g/kg glucose): 35%
